Assay results from patent publication US8603986B2, “Compounds and methods for modulating cadherin-mediated processes” (McGill University, priority 2005, dated 2013).
Marks after values point to notes of the source that are not given here.

What was measured:
[1] = system: SKOV3 human ovarian cancer cells; experiment: Disruption of SKOV3 cell adhesion in confluent cultures; format: cell-based; set-up: key to Peptide Disrupts Adhesion of SKOV3 cells: +: yes; −: no; conditions: for Peptide Disrupts Adhesion of SKOV3 cells: Table 8 summary
Method: SKOV3 human ovarian cancer cells (kind gift from Dr. Riaz Farookhi, McGill University, Montreal, Quebec) were cultured in MEM containing 1.25 μg/ml Fungizone, 100 U/ml penicillin 100 μg/ml streptomycin, 0.1 mM nonessential amino acids, 2 mM L-glutamine, 10 μg/ml ml gentamicin and 10% fetal bovine serum. All culture reagents were purchased from GIBCO (Burlington, ON). To obtain confluent cell cultures, 100,000 cells per well were plated onto a 4 well slide (NalgeNunc, Naperville, Ill.) and incubated for 24 h at 37° C., in a humidified atmosphere (5% CO2).
(§1) Depending on their solubility, peptides were dissolved directly in culture medium and added to confluent cell cultures at the indicated concentration, or they were dissolved in dimethylformamide (DMF) to obtain a 100× concentrated solution or in water to obtain a 10× concentrated solution. The peptide stock solutions were further diluted with culture medium to a final working concentration and added to confluent cell cultures. Culture medium containing 1% solvent was used as a control. At the end of the treatment, cells were either examined by phase contrast microscopy, or fixed with 4% paraformaldehyde in PBS and stained with hematoxylin prior to light microscopic examination.
Confluent cultures of SKOV3 cells were incubated in the presence of individual peptides.

[2] = molecular target: T1, E-cadherin/Fc chimeric protein (Homo sapiens, UniProt P12830); experiment: Table 8 summary: peptide binds to E-cad/Fc; format: binding; set-up: key: +: yes; −: no
T1 construct: extracellular domain of human E-cadherin (Asp155-Ile707); purchased R&D Systems, Minneapolis, Minn
T1 sequence (P12830 155-707): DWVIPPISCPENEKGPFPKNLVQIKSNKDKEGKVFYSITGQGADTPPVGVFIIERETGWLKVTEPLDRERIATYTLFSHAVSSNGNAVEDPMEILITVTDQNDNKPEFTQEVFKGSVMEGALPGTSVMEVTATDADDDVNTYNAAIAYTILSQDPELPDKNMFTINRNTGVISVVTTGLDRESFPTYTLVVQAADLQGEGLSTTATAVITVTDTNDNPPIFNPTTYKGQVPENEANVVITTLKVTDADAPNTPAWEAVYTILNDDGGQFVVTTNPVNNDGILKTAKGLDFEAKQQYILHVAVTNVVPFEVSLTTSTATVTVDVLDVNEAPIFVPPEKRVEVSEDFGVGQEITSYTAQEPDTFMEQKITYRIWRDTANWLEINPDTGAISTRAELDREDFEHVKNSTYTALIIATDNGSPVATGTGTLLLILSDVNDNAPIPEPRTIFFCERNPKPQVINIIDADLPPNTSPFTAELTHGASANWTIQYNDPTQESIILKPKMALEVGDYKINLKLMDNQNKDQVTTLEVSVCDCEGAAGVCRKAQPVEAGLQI

[3] = molecular target: T2, N-cadherin/Fc chimeric protein (Homo sapiens, UniProt P19022); experiment: Table 8 summary: peptide binds to N-cad/Fc; format: binding; set-up: key: +: yes; −: no
T2 construct: extracellular domain of human N-cadherin (Asp160-Ala724); purchased R&D Systems, Minneapolis, Minn
T2 sequence (P19022 160-724): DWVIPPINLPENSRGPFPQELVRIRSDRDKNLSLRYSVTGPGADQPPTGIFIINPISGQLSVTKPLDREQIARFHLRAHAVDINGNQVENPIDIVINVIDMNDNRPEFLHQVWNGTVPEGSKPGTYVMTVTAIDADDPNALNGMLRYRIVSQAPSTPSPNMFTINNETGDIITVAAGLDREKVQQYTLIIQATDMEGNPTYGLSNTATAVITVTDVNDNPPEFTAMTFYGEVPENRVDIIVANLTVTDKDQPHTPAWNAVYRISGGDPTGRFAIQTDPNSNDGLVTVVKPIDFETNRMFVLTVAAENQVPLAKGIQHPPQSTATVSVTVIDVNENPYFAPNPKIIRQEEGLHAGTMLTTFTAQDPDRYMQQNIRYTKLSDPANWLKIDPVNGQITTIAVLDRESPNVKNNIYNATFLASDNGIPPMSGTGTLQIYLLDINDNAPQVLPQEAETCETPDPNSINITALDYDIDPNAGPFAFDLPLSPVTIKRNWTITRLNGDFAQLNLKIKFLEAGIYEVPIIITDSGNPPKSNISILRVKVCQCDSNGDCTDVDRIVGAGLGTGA

[4] = system: MCF-7 human breast cancer cells; experiment: Disruption of MCF-7 cell adhesion; format: cell-based; set-up: key to Peptide Disrupts Adhesion of MCF-7 cells: +: yes; −: no; conditions: for Peptide Disrupts Adhesion of MCF-7 cells: Table 8 summary
Method: MCF-7 human breast cancer cells (kind gift from Dr. Riaz Farookhi, McGill University, Montreal, Quebec) were cultured in the same medium as SKOV3 but supplemented with 1 mM sodium pyruvate.
as §1

[5] = molecular target: T2, N-cadherin/Fc chimeric protein; experiment: Surface plasma resonance (Biacore) analysis on N-cadherin/Fc; format: binding
Method: (§2) The binding of representative peptide modulating agents to either N- or VE-cadherin/Fc chimeric proteins was assessed using a BIAcore X™ Biosensor (Pharmacia Ltd., Sweden). Goat anti-human IgG recognizing N- and VE-cadherin/Fc chimeric proteins (R&D Systems, Minneapolis, Minn.) was immobilized on a CM5 sensor chip (Biacore S51) using standard amine-coupling method at 25° C. HBS-P buffer (10 mM HEPES, 0.15 M NaCl, 0.005% p20, pH 7.4) was used as the running buffer. The carboxymethyl dextran surface was activated with a 7 min injection of a 1:1 ratio of 0.4 M EDC and 0.1 M NHS. The goat anti-human IgG (Caltag Lab.) was coupled to the surface with a 7 min injection diluted in 10 mM sodium acetate, pH 5.0 to a final concentration 80 ug/ml. Remaining activated groups were blocked with a 7 min injection of 1 M ethanolamine, pH 8.5. N- and VE-cadherin/Fc chimeric proteins were dissolved in buffer containing 50 mM Tris HCl, 150 mM NaCl, and 1.2 mM CaCl2 pH 7.5 to a concentration of 0.2 μM and captured on spots 1 and 2 at a flow rate of 30 μl/min for 30 min with resulting density 927 RU for N-cadherin/Fc chimeric protein and 1008 RU for VE-cadherin/Fc chimeric protein.
The linear peptide H-SWTLYTPSGQSK-NH2 (SEQ ID NO: 16) and the control linear peptide H-SRTLYTPSGQSK-NH2 (SEQ ID NO: 58) were passed over surfaces coated with captured N- and VE-cadherin/Fc chimeric proteins in running buffer containing 50 mM Tris-HCl, 150 mM NaCl, and 1.2 mM CaCl2, pH 7.5 at concentrations ranging from 100-1.56 uM. The experiment was performed at a flow rate 90 ul/min at 25° C. […] All responses were referenced for reference surface and blank injections of running buffer.

[6] = molecular target: T3, VE-cadherin/Fc chimeric protein (Homo sapiens, UniProt P33151); experiment: Surface plasma resonance (Biacore) analysis on VE-cadherin/Fc; format: binding; conditions: 100-1.56 uM
T3 construct: purchased R&D Systems, Minneapolis, Minn
T3 sequence (P33151 with tags, fused parts or gaps limits assumed, species assumed): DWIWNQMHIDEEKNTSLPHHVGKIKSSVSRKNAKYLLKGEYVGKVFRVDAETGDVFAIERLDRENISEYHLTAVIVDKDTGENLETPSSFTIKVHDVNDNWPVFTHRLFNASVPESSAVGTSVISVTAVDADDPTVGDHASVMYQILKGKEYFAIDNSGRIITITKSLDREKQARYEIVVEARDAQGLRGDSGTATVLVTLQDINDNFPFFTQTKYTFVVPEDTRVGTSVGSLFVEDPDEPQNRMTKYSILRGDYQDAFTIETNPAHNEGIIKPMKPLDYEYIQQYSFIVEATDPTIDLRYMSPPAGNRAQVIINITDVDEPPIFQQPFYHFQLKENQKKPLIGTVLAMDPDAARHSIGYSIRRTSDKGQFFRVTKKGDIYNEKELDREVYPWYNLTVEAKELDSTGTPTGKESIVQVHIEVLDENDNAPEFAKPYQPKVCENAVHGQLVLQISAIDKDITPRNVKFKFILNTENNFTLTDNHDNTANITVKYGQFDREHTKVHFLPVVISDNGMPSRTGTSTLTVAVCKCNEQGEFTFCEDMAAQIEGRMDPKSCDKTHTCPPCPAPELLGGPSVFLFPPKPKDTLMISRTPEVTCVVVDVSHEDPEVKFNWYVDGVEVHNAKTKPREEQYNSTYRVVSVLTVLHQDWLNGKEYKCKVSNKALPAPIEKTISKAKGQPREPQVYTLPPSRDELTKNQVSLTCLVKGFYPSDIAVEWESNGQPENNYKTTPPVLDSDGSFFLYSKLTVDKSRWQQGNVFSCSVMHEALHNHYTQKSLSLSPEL
Method: as §2, with “protein. […]” for “protein.”

[7] = system: Human Dermal Microvascular Endothelial Cells (HMVEC-d); experiment: Disruption of HMVEC adhesion; format: cell-based; set-up: key to Peptide Disrupts Adhesion of HMVEC: +: yes; −: no; conditions: for Peptide Disrupts Adhesion of HMVEC: Table 8 summary
Method: (§3) Human Umbilical Vein Endothelial Cells (HUVEC) and Human Dermal Microvascular Endothelial Cells (HMVEC-d) were purchased from Cambrex Bio Science Walkersville, Inc. Clonetics EGM-2 and EGM-2-MV Bulletkits (Cambrex Bio Science Walkersville, Inc) were used to culture HUVEC and HMVEC-d respectively. Cells (40,000 per well) were plated onto a 4 well slide (NalgeNunc, Naperville, Ill.) and incubated at 37° C., in a humidified atmosphere (5% CO2).
as §1

[8] = system: Human Umbilical Vein Endothelial Cells (HUVEC); experiment: Disruption of HUVEC adhesion; format: cell-based; set-up: key to Peptide Disrupts Adhesion of HUVEC: +: yes; −: no; conditions: for Peptide Disrupts Adhesion of HUVEC: Table 8 summary
Method: as §3, §1

[9] = confluent cultures, concentration not given
[10] = 1 mg/ml medium, up to 1 h incubation

Substance	Peptide Disrupts Adhesion of SKOV3 cells [1]	Peptide Binds to E-cad/Fc [2]	Peptide Binds to N-cad/Fc [3]	Peptide Disrupts Adhesion of MCF-7 cells [4]	effect on HUVEC adhesion [8, 10]	Peptide Disrupts Adhesion of HUVEC [8]	other results
H-SWELYYPLRANL-NH2	+	+	+	+			effect on SKOV3 cell adhesion ([1]; 1 mg/ml): disrupted; effect on MCF-7 cell adhesion ([4]; 1 mg/ml): disrupted
H-SRTLYTPSGQSK-NH2 [reference compound]	−		−		had no biological activity	−	binding to N-cadherin/Fc chimeric protein ([5]; 100-1.56 uM): did not bind; binding to VE-cadherin/Fc chimeric protein [6]: did not bind; effect on SKOV3 cell adhesion [1, 9]: had no effect; Peptide Disrupts Adhesion of HMVEC [7]: −; effect on HMVEC adhesion ([7]; highest concentration of 1 mg/ml): had no biological activity
H-EWMIHYDSALTS-NH2	+	+	+	+			effect on SKOV3 cell adhesion ([1]; 1 mg/ml): disrupted; effect on MCF-7 cell adhesion ([4]; 1 mg/ml): disrupted
H-WELRVSSP-NH2	+	−	+				effect on cell adhesion and cell morphology ([1]; 0.5 mg/ml, SKOV3 per b307 and Table 8): capable of disrupting cell adhesion and altering cell morphology
H-SWTLYTPSGQSK-(succinyl-PEG5000-OMe)—NH2 (H-SWTLYTPSGQSK-NH2; also: succinyl-PEG5000-OMe attached, site not given here)							activity on HUVEC adhesion ([8]; 4.7 mg/ml): strong activity; incubation time within which HUVEC adhesion was disrupted ([8]; 4.7 mg/ml): within one hour
H-SWTLYTPSGQSK-NH2 [H-SWTLYTPSGQSK-NH2]	+	−	+	−	disrupted HUVEC adhesion	+	Kd ([5]; 25° C., 1.2 mM CaCl2): 66 µM; kd ([5]; 25° C., 1.2 mM CaCl2): 0.407(8) s^−1; kon ([5]; pH 7.5, 25° C., 1.2 mM CaCl2, read-out: ka): 6100 M⁻¹ s⁻¹; binding to VE-cadherin/Fc chimeric protein [6]: did not bind; effect on SKOV3 cell adhesion [1, 9]: disrupted SKOV3 cell adhesion; effect on HMVEC adhesion ([7]; 0.062 mg/ml): disrupted; effect on HMVEC adhesion ([7]; 0.125 mg/ml): more pronounced effects; effect on HMVEC adhesion ([7]; 0.5 mg/ml and higher): still stronger effects; Peptide Disrupts Adhesion of HMVEC [7]: +; effect on HUVEC adhesion ([8]; 0.062 mg/ml, 1 h incubation): moderate activity; incubation time after which HUVEC adhesion was disrupted ([8]; 1 mg/ml medium): 5 min; incubation time of maximum effect on HUVEC adhesion ([8]; 1 mg/ml medium): 1 h; peptide concentrations disrupting HUVEC adhesion ([8]; after 1 h incubation, dose-dependent): ≥ 0.125 mg/mL; effect on MCF-7 cell adhesion ([4]; concentration not given): did not affect MCF-7 cell adhesion
H-WYVCVGAH-NH2	+	−##	+#	−			effect on SKOV3 cell adhesion and morphology ([1]; 100 and 150 μg/ml (tested 50, 100 and 150 μg/ml medium), 24 h): capable of disrupting cell adhesion and altering cell morphology; culture time after which the effect on SKOV3 cell adhesion was evident ([1]; more pronounced after 24 h): 9 h; effect on MCF-7 cell adhesion ([4]; 100 μg/ml): did not affect MCF-7 cell adhesion
H-HWYITTGPVREK-NH2		−	+		had no effect on HUVEC adhesion	−	
